{"source": "patent US20230060174A1", "about": "“PHARMACEUTICAL COMPOSITION OF TRICYCLIC PDE3/PDE4 DUAL INHIBITOR COMPOUND” (CHIA TAI TIANQING PHARMACEUTICAL GROUP CO., LTD., priority 2020, published 2023)", "key": {"[1]": {"biological_target": "T1, CYP1A2 (Homo sapiens, UniProt P05177)", "T1 construct": "co-incubated with human liver microsomes; from tissue; host or cells: human liver microsomes", "T1 sequence (P05177 1-516)": "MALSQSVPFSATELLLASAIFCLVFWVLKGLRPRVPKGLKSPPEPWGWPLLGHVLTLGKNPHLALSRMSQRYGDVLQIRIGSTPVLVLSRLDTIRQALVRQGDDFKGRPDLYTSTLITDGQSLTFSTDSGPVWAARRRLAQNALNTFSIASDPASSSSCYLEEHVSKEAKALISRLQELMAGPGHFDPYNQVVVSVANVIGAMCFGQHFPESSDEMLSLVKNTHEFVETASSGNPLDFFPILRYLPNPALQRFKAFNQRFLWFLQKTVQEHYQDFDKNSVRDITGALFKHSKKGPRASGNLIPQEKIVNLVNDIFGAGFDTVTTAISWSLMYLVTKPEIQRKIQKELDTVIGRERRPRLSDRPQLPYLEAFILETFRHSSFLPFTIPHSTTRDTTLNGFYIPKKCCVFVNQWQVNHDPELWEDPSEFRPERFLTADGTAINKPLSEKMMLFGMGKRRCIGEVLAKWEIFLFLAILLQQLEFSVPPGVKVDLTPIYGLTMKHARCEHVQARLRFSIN", "assay": "Inhibition of human liver microsomal CYP1A2 (phenacetin probe)", "format": "in vitro ADME", "conditions": "human liver microsomes", "protocol": "(§1) Experimental Example 6: Inhibitory effect on activity of isoenzymes (CYP1A2, CYP2C9, CYP2C19, CYP2D6 and CYP3A4) of human liver microsomal cytochrome P450 A total of 5 specific probe substrates of 5 isoenzymes of CYP, namely phenacetin (CYP1A2), diclofenac (CYP2C9), (S)-mephenytoin (CYP2C19), dextromethorphan (CYP2D6) and midazolam (CYP3A4) were each co-incubated with human liver microsomes and the compound of formula (I), and then reduced nicotinamide adenine dinucleotide phosphate (NADPH) was added to initiate the reaction. After the reaction was completed, the samples were treated, and the concentrations of 5 metabolites (acetaminophen, 4′-hydroxydiclofenac, 4′-hydroxymephenytoin, dextrorphan and l′-hydroxymidazolam) generated from the specific substrates were quantitatively detected by lC-MS/MS to calculate the correcnondino- half maximal inhibitory concentrationc (IC50)"}, "[2]": {"assay": "Pharmacokinetic study in beagle dogs", "format": "in vivo", "protocol": "Experimental Example 5: Pharmacokinetic study in beagle dogs In this study, male beagle dogs were selected as test animals, and LC-MS/MS was used for quantitatively measuring the drug concentration in plasma of beagle dogs at different time points after intravenous injection or intragastric administration of the compound of formula (I) so as to evaluate the pharmacokinetics of the compound of formula (I) in beagle dogs.\nThe clear solution of the compound of formula (I) was injected into two beagle dogs of 10-12 kg via the cephalic vein or saphenous vein, and the clear solution of the compound of formula (I) was administered intragastrically to two beagle dogs of 10-12 kg (overnight fasted). The animals were all subjected to approximately […] blood collection each time from peripheral veins at 0.0333, 0.0833, 0.25, 0.5, 1, 2, 4, 6, 8 and 24 h post-dose, and the blood was transferred into commercial centrifuge tubes containing 0.85-1.15 mg of K2 EDTA.2H20 anticoagulant, and plasma was separated by centrifugation at 3000 g for 10 min at 4° C. The plasma concentration was measured by LC-MS/MS, and the relevant pharmacokinetic parameters were calculated using WinNonlinTM Version 6.3 (Pharsight, Mountain View, Calif.), a pharmacokinetic software, with a non-compartmental model linear-log trapezoidal method."}, "[3]": {"biological_target": "T2, CYP2C9 (Homo sapiens, UniProt P11712)", "T2 construct": "co-incubated with human liver microsomes; from tissue; host or cells: human liver microsomes", "T2 sequence (P11712 whole entry)": "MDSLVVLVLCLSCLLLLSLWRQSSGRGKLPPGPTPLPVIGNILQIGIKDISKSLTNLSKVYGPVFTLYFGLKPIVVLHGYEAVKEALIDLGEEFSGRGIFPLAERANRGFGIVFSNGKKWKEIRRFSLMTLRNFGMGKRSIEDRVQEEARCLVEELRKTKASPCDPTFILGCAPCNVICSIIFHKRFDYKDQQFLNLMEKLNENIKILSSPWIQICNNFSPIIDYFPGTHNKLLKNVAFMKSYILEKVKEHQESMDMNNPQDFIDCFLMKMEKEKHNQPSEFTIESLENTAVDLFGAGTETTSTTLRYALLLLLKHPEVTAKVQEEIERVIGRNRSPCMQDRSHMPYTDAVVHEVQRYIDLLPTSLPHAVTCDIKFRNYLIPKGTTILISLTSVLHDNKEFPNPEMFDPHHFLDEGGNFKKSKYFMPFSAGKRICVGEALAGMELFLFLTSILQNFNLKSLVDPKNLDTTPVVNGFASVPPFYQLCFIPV", "assay": "Inhibition of human liver microsomal CYP2C9 (diclofenac probe)", "format": "in vitro ADME", "conditions": "human liver microsomes", "protocol": "as §1"}, "[4]": {"system": "TNF-α in human peripheral blood mononuclear cells", "assay": "Inhibitory activity against TNF-α in LPS-stimulated hPBMCs (ELISA)", "format": "cell-based", "conditions": "PBMC, 1 ng/mL LPS, 24 h, read-out: hPBMC IC50 (TNF-α)", "from_the_text": "Experimental Example 8: In vitro detection of the inhibitory activity of the compound against TNF-α in human peripheral blood mononuclear cells Objective: to measure the anti-inflammatory activity at cellular level of the test compound based on the level of TNF-α in human peripheral blood mononuclear cells (hPBMCs).\nProcedures: • 1. Normal human whole blood was collected into an EDTA anticoagulation tube; • 2. The PBMC was separated by Ficoll density gradient centrifugation and counted, and the cell concentration was adjusted to 2×10^6 cells/mL; • 3. To each well of a U-bottom 96-well plate were added 2×10^5 cells, 1 ng/mL LPS, and solutions of the compound of formula (I) in DMSO at concentrations of […], 1 μM, 100 nM, 10 nM, 1 nM, 100 pM and 10 pM, with a system volume of 200 μL per well; • 4. The mixture was incubated for 24 h, and then the supernatant was collected; • 5. The level of TNF-α in the supernatant was detected by ELISA, an inhibition curve was fitted using Graphpad Prism software, and the IC50 was calculated."}, "[5]": {"biological_target": "T3, recombinant human PDE4B (Homo sapiens, UniProt Q07343)", "T3 construct": "amino acid 305-end; GST (N); host or cells: Sf9 insect cells (baculovirus)", "T3 sequence (Q07343 305-736 limits assumed)": "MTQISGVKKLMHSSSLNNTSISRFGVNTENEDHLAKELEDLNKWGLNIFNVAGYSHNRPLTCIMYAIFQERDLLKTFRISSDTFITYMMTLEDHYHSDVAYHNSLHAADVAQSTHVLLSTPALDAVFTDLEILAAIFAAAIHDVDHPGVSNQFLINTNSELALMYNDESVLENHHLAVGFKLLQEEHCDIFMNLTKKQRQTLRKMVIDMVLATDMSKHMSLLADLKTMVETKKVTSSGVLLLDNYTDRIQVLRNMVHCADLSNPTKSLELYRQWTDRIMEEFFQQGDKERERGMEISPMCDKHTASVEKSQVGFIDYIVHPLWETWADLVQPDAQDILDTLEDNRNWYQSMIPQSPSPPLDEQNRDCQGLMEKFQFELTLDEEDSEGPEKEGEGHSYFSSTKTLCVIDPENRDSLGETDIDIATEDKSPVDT", "assay": "In vitro inhibitory activity against PDE 4B enzyme (fluorescence polarization)", "format": "biochemical", "conditions": "1 μM cAMP substrate"}, "[6]": {"conditions": "intragastric administration 3 mg/kg"}}}
{"compound": "CCOc1cc2c(cc1OC)-c1c/c(=N\\c3c(C)cc(C)cc3C)n(CCNC(=O)c3c(O)nnn3C)c(=O)n1CC2", "note": "[Compound of formula (I)]", "values": [{"measurement": "IC50", "setting": "[1]", "value": "≥ 50000", "unit": "nM"}, {"measurement": "Area under plasma concentration-time curve (0-inf)", "setting": "[2]; [6]", "value": 0.123, "unit": "µM·h"}, {"measurement": "Peak concentration", "setting": "[2]; [6]", "value": 59.4, "unit": "nM"}, {"measurement": "Time to peak", "setting": "[2]; [6]", "value": 0.6, "unit": "h"}, {"measurement": "Area under plasma concentration-time curve (0-inf)", "setting": "[2]; intravenous injection 0.5 mg/kg", "value": 0.21, "unit": "µM·h"}, {"measurement": "IC50", "setting": "[3]", "value": 31000, "unit": "nM"}, {"measurement": "IC50", "setting": "[4]", "value": 29.2, "unit": "nM"}, {"measurement": "IC50", "setting": "[5]", "value": 0.41, "unit": "nM"}]}
